Values after ≈ are worked out from the molar mass of the structure shown.
Key:
in vivo = conditions: female, ICR, mouse
Method: Test compounds were administered to female ICR mice weighing 20 to 25g and on day 14, LD₅₀ was calculated from the number of survived mice by the probit analysis.

[1] = tested on: Staphylococcus aureus SG 511; assay: In vitro anti-bacterial activity test (MIC, two-fold agar dilution); assay type: cell-based; conditions: SG511; Staphylococcus aureus SG 511; Mueller-Hinton agar, 10⁷ CFU/mℓ, 37°C, 18 hours; read-out: MIC
Escherichia coli 1507E = assay: as above; assay type: cell-based; conditions: Mueller-Hinton agar, 10⁷ CFU/mℓ, 37°C, 18 hours, read-out: MIC
[2] = tested on: Streptococcus pyogenes 77A; assay: as above; assay type: cell-based; conditions: Streptococcus pyogenes 77A; Mueller-Hinton agar, 10⁷ CFU/mℓ, 37°C, 18 hours; read-out: MIC
[3] = tested on: Staphylococcus aureus 285; assay: as above; assay type: cell-based; conditions: Staphylococcus aureus 285; Mueller-Hinton agar, 10⁷ CFU/mℓ, 37°C, 18 hours; read-out: MIC
[4] = tested on: Pseudomonas aeruginosa 1592E; assay: as above; assay type: cell-based; conditions: Mueller-Hinton agar, 10⁷ CFU/mℓ, 37°C, 18 hours, read-out: MIC
[5] = tested on: Staphylococcus aureus 503; assay: as above; assay type: cell-based; conditions: Staphylococcus aureus 503; Mueller-Hinton agar, 10⁷ CFU/mℓ, 37°C, 18 hours; read-out: MIC
[6] = tested on: Pseudomonas aeruginosa 1771M; assay: as above; assay type: cell-based; conditions: 18 h
Escherichia coli O 55 = assay: as above; assay type: cell-based; conditions: O55, Mueller-Hinton agar, 10⁷ CFU/mℓ, 37°C, 18 hours, read-out: MIC
Escherichia coli DC 0 = assay: as above; assay type: cell-based; conditions: DC0, Mueller-Hinton agar, 10⁷ CFU/mℓ, 37°C, 18 hours, read-out: MIC
[7] = tested on: Pseudomonas aeruginosa 1771; assay: as above; assay type: cell-based; conditions: Pseudomonas aeruginosa 1771; Mueller-Hinton agar, 10⁷ CFU/mℓ, 37°C, 18 hours; read-out: MIC
[8] = tested on: Pseudomonas aeruginosa 9027; assay: as above; assay type: cell-based; conditions: Pseudomonas aeruginosa 9027; Mueller-Hinton agar, 10⁷ CFU/mℓ, 37°C, 18 hours; read-out: MIC
[9] = tested on: Klebsiella aerogenes 1522E; assay: as above; assay type: cell-based; conditions: Mueller-Hinton agar, 10⁷ CFU/mℓ, 37°C, 18 hours, read-out: MIC
Escherichia coli OTEM = assay: as above; assay type: cell-based; conditions: Mueller-Hinton agar, 10⁷ CFU/mℓ, 37°C, 18 hours, read-out: MIC
Salmonella typhimurium = assay: as above; assay type: cell-based; conditions: Salmonella enterica, Mueller-Hinton agar, 10⁷ CFU/mℓ, 37°C, 18 hours, read-out: MIC
Enterobacter cloacae P99 = assay: as above; assay type: cell-based; conditions: Mueller-Hinton agar, 10⁷ CFU/mℓ, 37°C, 18 hours, read-out: MIC
Escherichia coli DC 2 = assay: as above; assay type: cell-based; conditions: DC2, Mueller-Hinton agar, 10⁷ CFU/mℓ, 37°C, 18 hours, read-out: MIC
[10] = tested on: Streptococcus faecium MD 8b; assay: as above; assay type: cell-based; conditions: Enterococcus faecium, MD8B; Streptococcus faecium MD 8b; Mueller-Hinton agar, 10⁷ CFU/mℓ, 37°C, 18 hours; read-out: MIC
[11] = tested on: Klebsiella aerogenes 1082E; assay: as above; assay type: cell-based; conditions: Mueller-Hinton agar, 10⁷ CFU/mℓ, 37°C, 18 hours, read-out: MIC
[12] = tested on: Streptococcus pyogenes 308A; assay: as above; assay type: cell-based; conditions: Mueller-Hinton agar, 10⁷ CFU/mℓ, 37°C, 18 hours, read-out: MIC
[13] = tested on: Enterobacter cloacae 1321E; assay: as above; assay type: cell-based; conditions: Mueller-Hinton agar, 10⁷ CFU/mℓ, 37°C, 18 hours, read-out: MIC

| SMILES | MIC [1] | MIC (Escherichia coli 1507E) | MIC [2] | MIC [3] | MIC [4] | MIC [5] | MIC [6] | MIC (Escherichia coli O 55) | MIC (Escherichia coli DC 0) | MIC [7] | MIC [8] | MIC [9] | MIC (Escherichia coli OTEM) | MIC (Salmonella typhimurium) | MIC (Enterobacter cloacae P99) | MIC (Escherichia coli DC 2) | MIC [10] | MIC [11] | MIC [12] | MIC [13] | further results |
| --- | --- | --- | --- | --- | --- | --- | --- | --- | --- | --- | --- | --- | --- | --- | --- | --- | --- | --- | --- | --- | --- |
| COc1c(N2CC3=C(C2)C(N)CC3)c(F)cc2c(=O)c(C(=O)O)cn(C3CC3)c12 (stereo not shown) [Example 6, 7-[6-amino-3-azabicyclo[3,3,0]oct-1(5)ene-3-yl]-1-cyclopropyl-6-fluoro-8-methoxy-1,4-dihydro-4-oxoquinoline-3-carboxylic acid] |  |  |  |  |  |  |  |  |  |  |  |  |  |  |  |  |  |  |  |  | LD50 at 14 day (in vivo; ip): 755 mg/kg; LD50 at 14 day (in vivo; po): 4300 mg/kg |
| NC1CCCC2=C1CN(c1c(F)cc3c(=O)c(C(=O)O)cn(C4CC4)c3c1F)C2 (stereo not shown) [Example 9, 7-[6-amino-3-azabicyclo[4,3,0]non-1(5)ene-3-yl]-1-cyclopropyl-6,8-difluoro-1,4-dihydro-4-oxoquinoline-3-carboxylic acid] | 0.098 µg/mL (≈ 0.244 µM) | 0.098 µg/mL (≈ 0.244 µM) | 0.098 µg/mL (≈ 0.244 µM) | 0.098 µg/mL (≈ 0.244 µM) | 3.12 µg/mL (≈ 7.78 µM) | 0.098 µg/mL (≈ 0.244 µM) | 0.781 µg/mL (≈ 1.95 µM) | 0.049 µg/mL (≈ 0.122 µM) | 0.781 µg/mL (≈ 1.95 µM) | 3.12 µg/mL (≈ 7.78 µM) | 3.12 µg/mL (≈ 7.78 µM) | 0.195 µg/mL (≈ 0.486 µM) | 0.098 µg/mL (≈ 0.244 µM) | 0.013 µg/mL (≈ 0.0324 µM) | 0.049 µg/mL (≈ 0.122 µM) | 0.195 µg/mL (≈ 0.486 µM) | 0.098 µg/mL (≈ 0.244 µM) | 0.195 µg/mL (≈ 0.486 µM) | 0.391 µg/mL (≈ 0.974 µM) |  |  |
| CNC1CCC2=C1CN(c1c(F)cc3c(=O)c(C(=O)O)cn4c3c1OC[C@@H]4C)C2 (stereo partly drawn) [Example 17, 9-fluoro-10-[6-methylamino-3-azabicyclo [3,3,0]oct-1(5)ene-3-yl]-3-(S)-methyl-7-oxo-2,3-dihydro-7H-pyrido[1,2,3-de]-1,4-benzoxazine-6-carboxylic acid] | 0.391 µg/mL (≈ 0.979 µM) | 0.781 µg/mL (≈ 1.96 µM) | 0.195 µg/mL (≈ 0.488 µM) | 0.781 µg/mL (≈ 1.96 µM) | 6.25 µg/mL (≈ 15.6 µM) | 0.781 µg/mL (≈ 1.96 µM) | 3.12 µg/mL (≈ 7.82 µM) | 0.195 µg/mL (≈ 0.488 µM) | 3.12 µg/mL (≈ 7.82 µM) | 12.5 µg/mL (≈ 31.3 µM) | 12.5 µg/mL (≈ 31.3 µM) | 1.56 µg/mL (≈ 3.91 µM) | 0.391 µg/mL (≈ 0.979 µM) | 0.391 µg/mL (≈ 0.979 µM) | 0.781 µg/mL (≈ 1.96 µM) | 0.391 µg/mL (≈ 0.979 µM) | 0.391 µg/mL (≈ 0.979 µM) | 0.195 µg/mL (≈ 0.488 µM) | 3.12 µg/mL (≈ 7.82 µM) | 0.391 µg/mL (≈ 0.979 µM) |  |
| CNC1CCC2=C1CN(c1nc3c(cc1F)c(=O)c(C(=O)O)cn3C1CC1)C2 (stereo not shown) [Example 15, 7-[6-methylamino-3-azabicyclo[3,3,0]oct-1(5)ene-3-yl]-1-cyclopropyl-6-fluoro-1,4-dihydro-4-oxo-1,8-naphthyridine-3-carboxylic acid] | 0.098 µg/mL (≈ 0.255 µM) | 0.195 µg/mL (≈ 0.507 µM) | 0.195 µg/mL (≈ 0.507 µM) | 0.195 µg/mL (≈ 0.507 µM) | 3.12 µg/mL (≈ 8.13 µM) | 0.098 µg/mL (≈ 0.255 µM) | 1.56 µg/mL (≈ 4.07 µM) | 0.049 µg/mL (≈ 0.127 µM) | 1.56 µg/mL (≈ 4.07 µM) | 3.12 µg/mL (≈ 8.13 µM) | 3.12 µg/mL (≈ 8.13 µM) | 0.195 µg/mL (≈ 0.507 µM) | 0.098 µg/mL (≈ 0.255 µM) | 0.195 µg/mL (≈ 0.507 µM) | 0.049 µg/mL (≈ 0.127 µM) | 0.391 µg/mL (≈ 1.02 µM) | 0.195 µg/mL (≈ 0.507 µM) | 0.025 µg/mL (≈ 0.065 µM) | 0.781 µg/mL (≈ 2.03 µM) | 0.049 µg/mL (≈ 0.127 µM) |  |

Reference: patent EP0549857A1, “Antibacterial quinolone carboxylic acid derivatives” (KOREA RESEARCH INSTITUTE OF CHEMICAL TECHNOLOGY, priority 1991, dated 1993)
